The NIST ThermoML archive (doi:10.1021/je049655w)
Values joined by “and” are separate entries in the source; they are usually repeats but may differ in a detail not shown here. Equal values may be shown once. ± gives the expanded uncertainty stated by the source.

What was measured:
[1] = 100.8 kPa, Liquid
[2] = refractive index (Na D-line) (dimensionless); details: 298.15 K; 101.33 kPa; Liquid; Standard Abbe refractometry
[3] = xn = mol fraction of the nth substance listed; details: 100.8 kPa, Liquid

CCC(C)=O [butanone]
mass density ([1]; 298.15 K): 799.7 ± 0.3 kg/m3
viscosity ([1]; 298.15 K): 0.378 ± 0.008 mPa·s
mass density ([1]; 308.15 K): 789.2 ± 0.3 kg/m3
viscosity ([1]; 308.15 K): 0.341 ± 0.007 mPa·s
mass density ([1]; 318.15 K): 778.4 ± 0.3 kg/m3
viscosity ([1]; 318.15 K): 0.307 ± 0.007 mPa·s
refractive index [2]: 1.37623 ± 0.00072

CCO [ethanol] + CCC(C)=O
mass density ([3]; 298.15 K, x1 = 1): 785.1 ± 0.3 kg/m3
viscosity ([3]; 298.15 K, x1 = 1): 1.088 ± 0.021 mPa·s
mass density ([3]; 308.15 K, x1 = 1): 776.5 ± 0.3 kg/m3
viscosity ([3]; 308.15 K, x1 = 1): 0.904 ± 0.018 mPa·s
mass density ([3]; 318.15 K, x1 = 1): 767.7 ± 0.3 kg/m3
viscosity ([3]; 318.15 K, x1 = 1): 0.763 ± 0.015 mPa·s

CC(C)CC(C)(C)C [2,2,4-trimethylpentane] + CCO
mass density ([3]; 298.15 K, x2 = 0): 687.8 ± 0.4 kg/m3
viscosity ([3]; 298.15 K, x2 = 0): 0.474 ± 0.01 mPa·s
mass density ([3]; 298.15 K, x2 = 0.05): 688.8 ± 0.4 kg/m3
viscosity ([3]; 298.15 K, x2 = 0.05): 0.476 ± 0.01 mPa·s
mass density ([3]; 298.15 K, x2 = 0.1): 690.3 ± 0.4 kg/m3
viscosity ([3]; 298.15 K, x2 = 0.1): 0.478 ± 0.01 mPa·s
mass density ([3]; 298.15 K, x2 = 0.15): 692.1 ± 0.4 kg/m3
viscosity ([3]; 298.15 K, x2 = 0.15): 0.48 ± 0.01 mPa·s
mass density ([3]; 298.15 K, x2 = 0.2): 694 ± 0.4 kg/m3
viscosity ([3]; 298.15 K, x2 = 0.2): 0.484 ± 0.01 mPa·s
mass density ([3]; 298.15 K, x2 = 0.25): 696.2 ± 0.4 kg/m3
viscosity ([3]; 298.15 K, x2 = 0.25): 0.494 ± 0.01 mPa·s
mass density ([3]; 298.15 K, x2 = 0.3): 698.5 ± 0.3 kg/m3
viscosity ([3]; 298.15 K, x2 = 0.3): 0.507 ± 0.01 mPa·s
mass density ([3]; 298.15 K, x2 = 0.35): 701.1 ± 0.3 kg/m3
viscosity ([3]; 298.15 K, x2 = 0.35): 0.521 ± 0.011 mPa·s
mass density ([3]; 298.15 K, x2 = 0.4): 704 ± 0.3 kg/m3
viscosity ([3]; 298.15 K, x2 = 0.4): 0.54 ± 0.011 mPa·s
mass density ([3]; 298.15 K, x2 = 0.45): 707.1 ± 0.3 kg/m3
viscosity ([3]; 298.15 K, x2 = 0.45): 0.561 ± 0.011 mPa·s
mass density ([3]; 298.15 K, x2 = 0.5): 710.6 ± 0.3 kg/m3
viscosity ([3]; 298.15 K, x2 = 0.5): 0.586 ± 0.012 mPa·s
mass density ([3]; 298.15 K, x2 = 0.55): 714.5 ± 0.3 kg/m3
viscosity ([3]; 298.15 K, x2 = 0.55): 0.613 ± 0.012 mPa·s
mass density ([3]; 298.15 K, x2 = 0.6): 718.8 ± 0.3 kg/m3
viscosity ([3]; 298.15 K, x2 = 0.6): 0.643 ± 0.013 mPa·s
mass density ([3]; 298.15 K, x2 = 0.65): 723.6 ± 0.3 kg/m3
viscosity ([3]; 298.15 K, x2 = 0.65): 0.678 ± 0.014 mPa·s
mass density ([3]; 298.15 K, x2 = 0.7): 729.1 ± 0.3 kg/m3
viscosity ([3]; 298.15 K, x2 = 0.7): 0.718 ± 0.014 mPa·s
mass density ([3]; 298.15 K, x2 = 0.75): 735.4 ± 0.3 kg/m3
viscosity ([3]; 298.15 K, x2 = 0.75): 0.76 ± 0.015 mPa·s
mass density ([3]; 298.15 K, x2 = 0.8): 742.3 ± 0.3 kg/m3
viscosity ([3]; 298.15 K, x2 = 0.8): 0.806 ± 0.016 mPa·s
mass density ([3]; 298.15 K, x2 = 0.85): 750.5 ± 0.3 kg/m3
viscosity ([3]; 298.15 K, x2 = 0.85): 0.861 ± 0.017 mPa·s
mass density ([3]; 298.15 K, x2 = 0.9): 760.1 ± 0.3 kg/m3
viscosity ([3]; 298.15 K, x2 = 0.9): 0.929 ± 0.018 mPa·s
mass density ([3]; 298.15 K, x2 = 0.95): 771.5 ± 0.3 kg/m3
viscosity ([3]; 298.15 K, x2 = 0.95): 0.999 ± 0.02 mPa·s
mass density ([3]; 308.15 K, x2 = 0): 679.5 ± 0.4 kg/m3
viscosity ([3]; 308.15 K, x2 = 0): 0.422 ± 0.009 mPa·s
mass density ([3]; 308.15 K, x2 = 0.05): 680.4 ± 0.4 kg/m3
viscosity ([3]; 308.15 K, x2 = 0.05): 0.424 ± 0.009 mPa·s
mass density ([3]; 308.15 K, x2 = 0.1): 681.8 ± 0.4 kg/m3
viscosity ([3]; 308.15 K, x2 = 0.1): 0.426 ± 0.009 mPa·s
mass density ([3]; 308.15 K, x2 = 0.15): 683.5 ± 0.4 kg/m3
viscosity ([3]; 308.15 K, x2 = 0.15): 0.429 ± 0.009 mPa·s
mass density ([3]; 308.15 K, x2 = 0.2): 685.4 ± 0.4 kg/m3
viscosity ([3]; 308.15 K, x2 = 0.2): 0.433 ± 0.009 mPa·s
mass density ([3]; 308.15 K, x2 = 0.25): 687.5 ± 0.4 kg/m3
viscosity ([3]; 308.15 K, x2 = 0.25): 0.439 ± 0.009 mPa·s
mass density ([3]; 308.15 K, x2 = 0.3): 689.8 ± 0.4 kg/m3
viscosity ([3]; 308.15 K, x2 = 0.3): 0.45 ± 0.009 mPa·s
mass density ([3]; 308.15 K, x2 = 0.35): 692.4 ± 0.4 kg/m3
viscosity ([3]; 308.15 K, x2 = 0.35): 0.462 ± 0.01 mPa·s
mass density ([3]; 308.15 K, x2 = 0.4): 695.2 ± 0.4 kg/m3
viscosity ([3]; 308.15 K, x2 = 0.4): 0.474 ± 0.01 mPa·s
mass density ([3]; 308.15 K, x2 = 0.45): 698.3 ± 0.3 kg/m3
viscosity ([3]; 308.15 K, x2 = 0.45): 0.487 ± 0.01 mPa·s
mass density ([3]; 308.15 K, x2 = 0.5): 701.8 ± 0.3 kg/m3
viscosity ([3]; 308.15 K, x2 = 0.5): 0.506 ± 0.01 mPa·s
mass density ([3]; 308.15 K, x2 = 0.55): 705.7 ± 0.3 kg/m3
viscosity ([3]; 308.15 K, x2 = 0.55): 0.527 ± 0.011 mPa·s
mass density ([3]; 308.15 K, x2 = 0.6): 710 ± 0.3 kg/m3
viscosity ([3]; 308.15 K, x2 = 0.6): 0.55 ± 0.011 mPa·s
mass density ([3]; 308.15 K, x2 = 0.65): 714.9 ± 0.3 kg/m3
viscosity ([3]; 308.15 K, x2 = 0.65): 0.576 ± 0.012 mPa·s
mass density ([3]; 308.15 K, x2 = 0.7): 720.3 ± 0.3 kg/m3
viscosity ([3]; 308.15 K, x2 = 0.7): 0.606 ± 0.012 mPa·s
mass density ([3]; 308.15 K, x2 = 0.75): 726.6 ± 0.3 kg/m3
viscosity ([3]; 308.15 K, x2 = 0.75): 0.641 ± 0.013 mPa·s
mass density ([3]; 308.15 K, x2 = 0.8): 733.6 ± 0.3 kg/m3
viscosity ([3]; 308.15 K, x2 = 0.8): 0.677 ± 0.014 mPa·s
mass density ([3]; 308.15 K, x2 = 0.85): 741.7 ± 0.3 kg/m3
viscosity ([3]; 308.15 K, x2 = 0.85): 0.72 ± 0.014 mPa·s
mass density ([3]; 308.15 K, x2 = 0.9): 751.4 ± 0.3 kg/m3
viscosity ([3]; 308.15 K, x2 = 0.9): 0.768 ± 0.015 mPa·s
mass density ([3]; 308.15 K, x2 = 0.95): 762.8 ± 0.3 kg/m3
viscosity ([3]; 308.15 K, x2 = 0.95): 0.829 ± 0.016 mPa·s
mass density ([3]; 318.15 K, x2 = 0): 671 ± 0.4 kg/m3
viscosity ([3]; 318.15 K, x2 = 0): 0.382 ± 0.008 mPa·s
mass density ([3]; 318.15 K, x2 = 0.05): 671.7 ± 0.4 kg/m3
viscosity ([3]; 318.15 K, x2 = 0.05): 0.384 ± 0.008 mPa·s
mass density ([3]; 318.15 K, x2 = 0.1): 673 ± 0.4 kg/m3
viscosity ([3]; 318.15 K, x2 = 0.1): 0.385 ± 0.008 mPa·s
mass density ([3]; 318.15 K, x2 = 0.15): 674.7 ± 0.4 kg/m3
viscosity ([3]; 318.15 K, x2 = 0.15): 0.389 ± 0.008 mPa·s
mass density ([3]; 318.15 K, x2 = 0.2): 676.5 ± 0.4 kg/m3
viscosity ([3]; 318.15 K, x2 = 0.2): 0.391 ± 0.008 mPa·s
mass density ([3]; 318.15 K, x2 = 0.25): 678.6 ± 0.4 kg/m3
viscosity ([3]; 318.15 K, x2 = 0.25): 0.397 ± 0.008 mPa·s
mass density ([3]; 318.15 K, x2 = 0.3): 680.9 ± 0.4 kg/m3
viscosity ([3]; 318.15 K, x2 = 0.3): 0.404 ± 0.008 mPa·s
mass density ([3]; 318.15 K, x2 = 0.35): 683.4 ± 0.4 kg/m3
viscosity ([3]; 318.15 K, x2 = 0.35): 0.412 ± 0.009 mPa·s
mass density ([3]; 318.15 K, x2 = 0.4): 686.2 ± 0.4 kg/m3
viscosity ([3]; 318.15 K, x2 = 0.4): 0.422 ± 0.009 mPa·s
mass density ([3]; 318.15 K, x2 = 0.45): 689.3 ± 0.4 kg/m3
viscosity ([3]; 318.15 K, x2 = 0.45): 0.433 ± 0.009 mPa·s
mass density ([3]; 318.15 K, x2 = 0.5): 692.8 ± 0.4 kg/m3
viscosity ([3]; 318.15 K, x2 = 0.5): 0.446 ± 0.009 mPa·s
mass density ([3]; 318.15 K, x2 = 0.55): 696.6 ± 0.4 kg/m3
viscosity ([3]; 318.15 K, x2 = 0.55): 0.463 ± 0.01 mPa·s
mass density ([3]; 318.15 K, x2 = 0.6): 700.9 ± 0.3 kg/m3
viscosity ([3]; 318.15 K, x2 = 0.6): 0.48 ± 0.01 mPa·s
mass density ([3]; 318.15 K, x2 = 0.65): 705.8 ± 0.3 kg/m3
viscosity ([3]; 318.15 K, x2 = 0.65): 0.5 ± 0.01 mPa·s
mass density ([3]; 318.15 K, x2 = 0.7): 711.3 ± 0.3 kg/m3
viscosity ([3]; 318.15 K, x2 = 0.7): 0.524 ± 0.011 mPa·s
mass density ([3]; 318.15 K, x2 = 0.75): 717.6 ± 0.3 kg/m3
viscosity ([3]; 318.15 K, x2 = 0.75): 0.55 ± 0.011 mPa·s
mass density ([3]; 318.15 K, x2 = 0.8): 724.7 ± 0.3 kg/m3
viscosity ([3]; 318.15 K, x2 = 0.8): 0.58 ± 0.012 mPa·s
mass density ([3]; 318.15 K, x2 = 0.85): 732.9 ± 0.3 kg/m3
viscosity ([3]; 318.15 K, x2 = 0.85): 0.616 ± 0.012 mPa·s
mass density ([3]; 318.15 K, x2 = 0.9): 742.5 ± 0.3 kg/m3
viscosity ([3]; 318.15 K, x2 = 0.9): 0.657 ± 0.013 mPa·s
mass density ([3]; 318.15 K, x2 = 0.95): 753.9 ± 0.3 kg/m3
viscosity ([3]; 318.15 K, x2 = 0.95): 0.702 ± 0.014 mPa·s

CC(C)CC(C)(C)C [2,2,4-trimethylpentane]
mass density ([1]; 298.15 K): 687.8 ± 0.4 kg/m3
viscosity ([1]; 298.15 K): 0.474 ± 0.01 mPa·s
mass density ([1]; 308.15 K): 679.5 ± 0.4 kg/m3
viscosity ([1]; 308.15 K): 0.422 ± 0.009 mPa·s and 0.426 ± 0.009 mPa·s
mass density ([1]; 318.15 K): 671 ± 0.4 kg/m3
viscosity ([1]; 318.15 K): 0.382 ± 0.008 mPa·s
refractive index [2]: 1.38902 ± 0.00072

CCO [ethanol]
mass density ([1]; 298.15 K): 785.1 ± 0.3 kg/m3
viscosity ([1]; 298.15 K): 1.088 ± 0.021 mPa·s
mass density ([1]; 308.15 K): 776.5 ± 0.3 kg/m3
viscosity ([1]; 308.15 K): 0.904 ± 0.018 mPa·s
mass density ([1]; 318.15 K): 767.7 ± 0.3 kg/m3
viscosity ([1]; 318.15 K): 0.763 ± 0.015 mPa·s
refractive index [2]: 1.35949 ± 0.00072
